The source of these data is US10556896B2, “Crystalline forms of (3-Amino-oxetan-3-ylmethyl)-[2-(5,5-dioxo-5,6,7,9-tetrahydro-5lambda*6*-thia-8-aza-benzocyclohepten-8-yl)-6-methyl-quinazolin-4-yl]-amine” (Hoffmann-La Roche Inc., priority 2016, dated 2020).

What all share (type): physicochemical
The nature of series [1]: Chemical stability of crystal forms (storage, HPLC chemical purity). The method, then:
HPLC condition is disclosed here in Table 1-1. [table] 40 mg compound (I) of crystal Forms C, E and F were stored in stability chamber with temperature and humidity controlled as 50° C. and 40° C./75% RH respectively, 40 mg compound (I) of Form B was stored at 105° C. oven. After each time point, the samples were analyzed by HPLC to check their chemical purity and compared with their initial value.

The nature of series [2]: Hygroscopicity of crystal forms by dynamic vapour sorption (DVS). Particulars: for Hygroscopicity, water sorption @80% RH: 25° C.; for Hygroscopicity (result in words): compared with Form D. Here is the method: Dynamic vapour sorption (DVS) was tested using a DVS intrinsic from SMS (Surface Measurement Systems Co. Ltd.). 20 mg compound (I) of each crystal form was placed in an aluminium sample pan and recorded the sample weight change under different humidity. The DVS method parameters were set according to Table 16, and the method was run by the machine based on such parameters. [table]

Series [3] can be described thus: Equilibrium aqueous solubility in bio-relevant media (SGF, FaSSIF, FeSSIF). The note with it: for Final pH (FaSSIF) / Final pH (FeSSIF) / Final pH (SGF): after equilibration at 25° C. for 24 hours. The method, then: Aqueous solubility was determined by suspending 10 mg compound in different bio-relevant media including SGF, FaSSIF and FeSSIF. The suspension was equilibrated at 25° C. for 24 hours then the final pH was measured. The suspension was then filtered through a 0.22 um PVDF filter into a 2-mL HPLC vial. The quantitation was conducted by HPLC (described in Example 10) with reference to a standard solution.

≈ marks a conversion by molar mass, not a printed value.

Consider `Cc1ccc2nc(N3CCS(=O)(=O)c4ccccc4C3)nc(NCC3(N)COC3)c2c1` [Example 2, Form B of compound (I), (3-Amino-oxetan-3-ylmethyl)-[2-(5,5-dioxo-5,6,7,9-tetrahydro-5lambda*6*-thia-8-aza-benzocyclohepten-8-yl)-6-methyl-quinazolin-4-yl]-amine], for which the “Chemical Purity, %” value in series [1] (105° C., 24 hr) was found to be 99.80%; in series [1] (Initial) it was 99.81%.
Regarding `Cc1ccc2nc(N3CCS(=O)(=O)c4ccccc4C3)nc(NCC3(N)COC3)c2c1` [Example 1, Form A of compound (I), (3-Amino-oxetan-3-ylmethyl)-[2-(5,5-dioxo-5,6,7,9-tetrahydro-5lambda*6*-thia-8-aza-benzocyclohepten-8-yl)-6-methyl-quinazolin-4-yl]-amine], in series [2], the “Hygroscopicity, water sorption @80% RH” value turned out to be 0.25% water sorption @80% RH and the “Hygroscopicity (result in words)” value is recorded as “much improved hygroscopicity than Form D”. For the same molecule, in series [3] (25° C., 24 hours), the “S, mg/mL (FaSSIF)” value came out at 0.12 mg/mL and the “S, mg/mL (SGF)” value stood at 2.40 mg/mL. Further, in series [3], the “Final pH (FaSSIF)” value is 6.60 and the “Final pH (SGF)” value was 4.80. For the same molecule, the “S, mg/mL (FeSSIF)” value in series [3] (FeSSIF, 25° C., 24 hours) was 1.72 mg/mL. Moreover, in series [3] (FeSSIF), the “Final pH (FeSSIF)” value was found to be 5.31.
Consider `Cc1ccc2nc(N3CCS(=O)(=O)c4ccccc4C3)nc(NCC3(N)COC3)c2c1` [Example 5, Form E of compound (I), (3-Amino-oxetan-3-ylmethyl)-[2-(5,5-dioxo-5,6,7,9-tetrahydro-5lambda*6*-thia-8-aza-benzocyclohepten-8-yl)-6-methyl-quinazolin-4-yl]-amine], for which, in series [2], the “Hygroscopicity, water sorption @80% RH” value came to 1.12% water sorption @80% RH and the “Hygroscopicity (result in words)” value is “much improved hygroscopicity than Form D”. Also, in series [3] (25° C., 24 hours), the “S, mg/mL (FaSSIF)” value amounted to 0.90 mg/mL and the “S, mg/mL (SGF)” value is listed as greater than 5 mg/mL. Besides, in series [3], the “Final pH (FaSSIF)” value was determined as 5.31 and the “Final pH (SGF)” value turned out to be 4.69. Besides, the solubility thermodynamic at 24 h in series [3] (FeSSIF, 25 °C, fessif, thermodynamic from solid, FeSSIF, 25° C., 24 hours, read-out: S, mg/mL (FeSSIF)) was 2.18 mg/mL (≈ 4.96 mM). Also, the “Final pH (FeSSIF)” value in series [3] (FeSSIF) came to 5.34. Further, the “Chemical Purity, %” value in series [1] (40° C./75% RH, 1 month) was 99.14%. Also, in series [1] (50° C., 1 month), the “Chemical Purity, %” value worked out at 99.45%. The “Chemical Purity, %” value in series [1] (Initial) worked out at 99.49%.
Turning to `Cc1ccc2nc(N3CCS(=O)(=O)c4ccccc4C3)nc(NCC3(N)COC3)c2c1` [Example 4, Form D of compound (I), (3-Amino-oxetan-3-ylmethyl)-[2-(5,5-dioxo-5,6,7,9-tetrahydro-5lambda*6*-thia-8-aza-benzocyclohepten-8-yl)-6-methyl-quinazolin-4-yl]-amine], in series [2], the “Hygroscopicity, water sorption @80% RH” value turned out to be 7.52% water sorption @80% RH and the “Hygroscopicity (result in words)” value is reported as “not suitable for further drug development”.
Regarding `Cc1ccc2nc(N3CCS(=O)(=O)c4ccccc4C3)nc(NCC3(N)COC3)c2c1` [Example 6, Form F of compound (I), (3-Amino-oxetan-3-ylmethyl)-[2-(5,5-dioxo-5,6,7,9-tetrahydro-5lambda*6*-thia-8-aza-benzocyclohepten-8-yl)-6-methyl-quinazolin-4-yl]-amine], in series [2], the “Hygroscopicity, water sorption @80% RH” value stood at 0.50% water sorption @80% RH and the “Hygroscopicity (result in words)” value is “much improved hygroscopicity than Form D”. In series [3] (25° C., 24 hours), the “S, mg/mL (FaSSIF)” value came to 1.58 mg/mL. In series [3], the “Final pH (FaSSIF)” value worked out at 4.99 and the “Final pH (SGF)” value stood at 3.15. Further, the “S, mg/mL (FeSSIF)” value in series [3] (FeSSIF, 25° C., 24 hours) is listed as 1.99 mg/mL. Further, in series [3] (FeSSIF), the “Final pH (FeSSIF)” value came to 5.18. Also, the “Chemical Purity, %” value in series [1] (40° C./75% RH, 1 month) is recorded as 99.42%. For the same molecule, the “Chemical Purity, %” value in series [1] (50° C., 1 month) is 99.43%. The “Chemical Purity, %” value in series [1] (Initial) came out at 99.62%.
Regarding `Cc1ccc2nc(N3CCS(=O)(=O)c4ccccc4C3)nc(NCC3(N)COC3)c2c1` [Example 3, Form C of compound (I), (3-Amino-oxetan-3-ylmethyl)-[2-(5,5-dioxo-5,6,7,9-tetrahydro-5lambda*6*-thia-8-aza-benzocyclohepten-8-yl)-6-methyl-quinazolin-4-yl]-amine], in series [2], the “Hygroscopicity, water sorption @80% RH” value stood at 0.04% water sorption @80% RH and the “Hygroscopicity (result in words)” value is on record as “much improved hygroscopicity than Form D”. In series [3] (25° C., 24 hours), the “S, mg/mL (FaSSIF)” value is 0.11 mg/mL and the “S, mg/mL (SGF)” value stood at 3.81 mg/mL. In series [3], the “Final pH (FaSSIF)” value came out at 6.63 and the “Final pH (SGF)” value was 4.92. The “S, mg/mL (FeSSIF)” value in series [3] (FeSSIF, 25° C., 24 hours) is on record as 1.88 mg/mL. In addition, the “Final pH (FeSSIF)” value in series [3] (FeSSIF) is 5.26. Besides, the “Chemical Purity, %” value in series [1] (40° C./75% RH, 1 month) stood at 99.28%. The “Chemical Purity, %” value in series [1] (50° C., 1 month) amounted to 99.32%. For the same molecule, the “Chemical Purity, %” value in series [1] (Initial) amounted to 99.30%.
